Source: US8940690B2, “Synthetic conjugates and uses thereof” (National Institutes of Health (NIH), priority 2009, dated 2015)

Experiments:
[1] = test system: fasted normal non-diabetic rats (Male Sprague-Dawley); assay: Blood glucose depression profile after subcutaneous injection; assay type: in vivo, rat
Description: Subcutaneous injections of the insulin-dextran were administered using 0.25 ml of a sterilized 1×PBS solution (20 U of equivalent insulin/ml) behind the neck of fasted normal non-diabetic rats (Male Sprague-Dawley, 200-250 g, n=4). Blood samples were collected via tail vein bleeding at −15 and 0 minutes, and at 15, 30, 45, 60, 90, 120, 180, 240, 300 and 360 minutes after injection. Blood glucose values were measured using commercially available test strips (Precision Xtra, Abbott Laboratories, Abbott Park, Ill.).
This example evaluates the in vivo pharmacodynamic profile of subcutaneously administered insulin-glycogen. […] The bioactivity of the insulin-glycogen conjugate was evaluated by injecting a 2.5 equivalent U of insulin/kg dose behind the neck of fasted normal non-diabetic rats (Male Sprague-Dawley, 200-250 g, n=4). Blood samples were collected via tail vein bleeding at −15 and 0 minutes, and at 15, 30, 45, 60, 90, 120, 180, 240, 300 and 360 minutes after injection. Blood glucose values were measured using commercially available test strips (Precision Xtra, Abbott Laboratories, Abbott Park, Ill.).

[2] = Serum insulin (PK) profile after subcutaneous injection, Human Insulin ELISA; assay type: in vivo, rat; settings: 5 U/kg
Description: Blood samples were collected via tail vein bleeding at 0 minutes and at 30, 60, 90, 120, 150, 180, 210, 240, and 300 minutes after injection. Blood from each timepoint was centrifuged at 4 C to collect the serum. Serum insulin concentrations were subsequently measured with a commercially available ELISA kit (Human Insulin ELISA, Mercodia, Uppsala, Sweden).
This example describes the serum insulin and blood glucose depression profiles obtained for a subcutaneously administered exemplary conjugate. […] In this case, the conjugate was injected at 5 U/kg behind the neck of fasted normal non-diabetic rats (Male Sprague-Dawley, 400-500 g, n=3). […] Serum insulin concentrations were subsequently measured with a commercially available ELISA kit (Human Insulin ELISA, Mercodia, Uppsala, Sweden).
In each case, the conjugate or insulin lispro was injected at 3.5 U/kg behind the neck of fasted normal non-diabetic rats (Male Sprague-Dawley, 400-500 gm, n=6). […] Serum insulin concentrations were subsequently measured with a commercially available ELISA kit (Human Insulin ELISA, Mercodia, Uppsala, Sweden).
Blood samples were collected via tail vein bleeding at 0 minutes and at 30, 60, 90, 120, 150, 180, 210, 240, and 300 minutes after injection. […] Serum insulin concentrations were subsequently measured with a commercially available ELISA kit (Human Insulin ELISA, Mercodia, Uppsala, Sweden).

[3] = 0.25 ml of 20 U of equivalent insulin/ml

In the case of “insulin-glycogen: comparative insulin-glycogen conjugate from oyster glycogen Type II according to US 20070099820”, the “glucose lowering compared to insulin-dextran conjugates” value ([1]; 2.5 equivalent U of insulin/kg) is reported as “lower glucose levels much more rapidly and to a greater extent”.

With “B29-substituted conjugate: synthesized using TSAT-C6 as the framework, AEM as the affinity ligand, and recombinant human insulin as the drug” the “pharmacokinetic profile (serum insulin) compared to RHI and B1-substituted conjugate” value [2] was “statistically indistinguishable from that of RHI”.

For “insulin-dextran: comparative insulin-dextran conjugate (dextran MW 70K) made by CNBr coupling, 10% (w/w) insulin”, the “time serum glucose levels remain depressed post injection” value [1, 3] was “at least five” and the “time to reach the glucose nadir (Tnadir)” value [1, 3] was “about 3 hours”.
